US6455520B1, “Benzamide derivatives and their use as cytokine inhibitors” (Astra Zeneca AB, priority 1998, dated 2002)

Legend:
[1] = system: TNFα production by human peripheral blood mononuclear cells; assay: PBMC test: inhibition of LPS-stimulated TNFα production; format: cell-based
Method: The ability of compounds of this invention to inhibit TNFα production was assessed by using human peripheral blood mononuclear cells which synthesise and secrete TNFα when stimulated with lipopolysaccharide.
Peripheral blood mononuclear cells (PBMC) were isolated from heparinised (10 units/ml heparin) human blood by density centrifugation (Lymphoprep™; Nycomed). Mononuclear cells were resuspended in culture medium [RPMI 1640 medium (Gibco) supplemented with 50 units/ml penicillin, 50 μg/ml streptomycin, 2 mM glutamine and 1% heat-inactivated human AB serum (Sigma H-1513)]. Compounds were solubilised in DMSO at a concentration of 50 mM, diluted 1:100 in culture medium and subsequently serial dilutions were made in culture medium containing 1% DMSO. PBMCs (2.4×10^5 cells in 160 μl culture medium) were incubated with 20 μl of varying concentrations of test compound (triplicate cultures) or 20 μl culture medium containing 1% DMSO (control wells) for 30 minutes at 37° C. in a humidified (5%CO2/95% air) incubator (Falcon 3072; 96 well flat-bottom tissue culture plates). 20 μl lipopolysaccharide [LPS E.Coli 0111:B4 (Sigma L-4130), final concentration 10 μg/ml] solubilised in culture medium was added to appropriate wells. 20 μl culture medium was added to “medium alone” control wells. Six “LPS alone” and four “medium alone” controls were included on each 96 well plate. Varying concentrations of a known TNFα inhibitor were included in each test, i.e. an inhibitor of the PDE Type IV enzyme (for example see Semmler, J. Wachtel. H and Endres, S., Int. J. Immunopharmac. (1993), 15(3), 409-413) or an inhibitor of pro TNFα convertase (for example, see McGeehan, G. M. et al. Nature (1994) 370, 558-561). Plates were incubated for 7 hours at 37° C. (humidified incubator) after which 100 μl of the supernatant was removed from each well and stored at −70° C. (96 well round-bottom plates; Corning 25850). TNFα levels were determined in each sample using a human TNFα ELISA (see WO92/10190 and Current Protocols in Molecular Biology, vol 2 by Frederick M. Ausbel et al., John Wiley and Sons Inc.).
% inhibition=(LPS alone−medium alone)−(test concentration−medium alone)/(LPS alone−medium alone)×100

p38α = molecular target: T1, p38α (Homo sapiens, UniProt Q16539); assay: In vitro enzyme assay, p38α; format: biochemical; details: read-out: IC50 against p38α
T1 construct: c-myc (N); 6His (N); made in house; host or cells: E. coli (PET vectors)
Method: The ability of compounds of the invention to inhibit the enzyme p38 kinase was assessed. Activity of test compounds against each of the p38α and p38β isoforms of the enzyme was determined.
Human recombinant MKK6 (GenBank Accesion Number G1209672) was isolated from Image clone 45578 (Genomics, 1996, 33, 151) and utilised to produce protein in the form of a GST fusion protein in a pGEX vector using analogous procedures to those disclosed by J. Han et al., Journal of Biological Chemistry, 1996, 271, 2886-2891. p38α (GenBank Accession Number G529039) and p38β (GenBank Accession Number G1469305) were isolated by PCR amplification of human lymphoblastoid cDNA (GenBank Accession Number GM1416) and human foetal brain cDNA [synthesised from mRNA (Clontech, catalogue no. 6525-1) using a Gibco superscript cDNA synthesis kit] respectively using oligonucleotides designed for the 5′ and 3′ ends of the human p38α and p38β genes using analogous procedures to those described by J. Han et al., Biochimica et Biophysica Acta, 1995, 1265, 224-227 and Y. Jiang et al., Journal of Biological Chemistry, 1996, 271, 17920-17926.
Both p38 protein isoforms were expressed in e coli in PET vectors. Human recombinant p38α and p38β isoforms were produced as 5′ c-myc, 6His tagged proteins. Both MKK6 and the p38 proteins were purified using standard protocols: the GST MKK6 was purified using a glutathione sepharose column and the p38 proteins were purified using nickel chelate columns.
The p38 enzymes were activated prior to use by incubation with MKK6 for 3 hours at 30° C. The unactivated coli-expressed MKK6 retained sufficient activity to fully activate both isoforms of p38. The activation incubate comprised p38α (10 μl of 10 mg/ml) or p38β (10 μl of 5 mg/ml) together with MKK6 (10 μl of 1 mg/ml), ‘Kinase buffer’ [100 μl; pH 7.4 buffer comprising Tris (50 mM), EGTA (0.1 mM), sodium orthovanadate (0.1 mM) and β-mercaptoethanol (0.1%)] and MgATP (30 μl of 50 mM Mg(OCOCH3)2 and 0.5 mM ATP). This produced enough activated p38 enzyme for 3 Microtiter plates.
Test compounds were solubilised in DMSO and 10 μl of a 1:10 diluted sample in ‘Kinase Buffer’ was added to a well in a Microtiter plate. For single dose testing, the compounds were tested at 10 μM. ‘Kinase Assay Mix’ [30 μl; comprising Myelin Basic Protein (Gibco BRL cat. no. 1322B-010; 1 ml of a 3.33 mg/ml solution in water), activated p38 enzyme (50 μl ) and ‘Kinase Buffer’ (2 ml)] was then added followed by ‘Labelled ATP’ [10 μl; comprising 50 μM ATP, 0.1 μCi ^33P ATP (Amersham International cat. no. BF1000) and 50 mM Mg(OCOCH3)2]. The plates were incubated at room temperature with gentle agitation. Plates containing p38α were incubated for 90 min and plates containing p38β P were incubated for 45 min. Incubation was stopped by the addition of 50 μl of 20% trichloroacetic acid (TCA). The precipitated protein was phosphorylated by p38 kinase and test compounds were assessed for their ability to inhibit this phosphorylation. The plates were filtered using a Canberra Packard Unifilter and washed with 2% TCA, dried overnight and counted on a Top Count scintillation counter.
Test compounds were tested initially at a single dose and active compounds were retested to allow IC50 values to be determined.

[2] = system: TNFα production in human whole blood; assay: Human Whole Blood test: inhibition of LPS-stimulated TNFα production; format: cell-based
Method: The ability of the compounds of this invention to inhibit TNFα production was also assessed in a human whole blood assay. Human whole blood secretes TNFα when stimulated with LPS. This property of blood forms the basis of an assay which is used as a secondary test for compounds which profile as active in the PBMC test.
Heparinised (10 units/ml) human blood was obtained from volunteers. 160 μl whole blood were added to 96 well round-bottom plates (Corning 25850). Compounds were solubilised and serially diluted in RPMI 1640 medium (Gibco) supplemented with 50 units/ml penicillin, 50 μg/ml streptomycin and 2 mM glutamine, as detailed above. 20 μl of each test concentration was added to appropriate wells (triplicate cultures). 20 μl of RPMI 1640 medium supplemented with antibiotics and glutamine was added to control wells. Plates were incubated for 30 minutes at 37° C. (humidified incubator), prior to addition of 20 μl LPS (final concentration 10 μg/ml). RPMI 1640 medium was added to control wells. Six “LPS alone” and four “medium alone” controls were included on each plate. A known TNFα synthesis/secretion inhibitor was included in each test. Plates were incubated for 6 hours at 37° C. (humidified incubator). […] TNFα levels were measured by ELISA (see WO92/10190 and Current Protocols in Molecular Biology, vol 2 by Frederick M. Ausbel et al., John Wiley and Sons Inc.). […]

T1 sequence (Q16539 whole entry): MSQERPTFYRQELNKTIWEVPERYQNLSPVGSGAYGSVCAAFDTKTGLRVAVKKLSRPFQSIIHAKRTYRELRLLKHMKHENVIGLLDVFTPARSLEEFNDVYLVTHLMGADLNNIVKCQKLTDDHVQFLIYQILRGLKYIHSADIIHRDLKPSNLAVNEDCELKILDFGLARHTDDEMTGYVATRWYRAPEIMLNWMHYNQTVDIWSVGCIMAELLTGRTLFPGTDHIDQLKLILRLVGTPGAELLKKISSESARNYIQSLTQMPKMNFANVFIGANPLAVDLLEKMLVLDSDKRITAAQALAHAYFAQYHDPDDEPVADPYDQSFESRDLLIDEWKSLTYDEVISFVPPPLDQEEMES

| SMILES | IC50 [1] [nM] | IC50 (p38α) [nM] | IC50 [2] [nM] | melting point [°C] |
| --- | --- | --- | --- | --- |
| Cc1ccc(NC(=O)c2ccco2)cc1NC(=O)c1cccc(CN2CCN(C)CC2)c1 [N-{4-methyl-3-[3-(4-methylpiperazin-1-ylmethyl)benzamido]phenyl}furan-2-carboxamide] | ~4000 | ~1000 | – | – |
| Cc1ccc(NC(=O)c2ccnc(N3CCCC3)c2)cc1NC(=O)c1cccc(CN2CCN(C)CC2)c1 [N-{3-[3-(4-methylpiperazin-1-ylmethyl)benzamido]-4-methylphenyl}-2-pyrrolidin-1-ylpyridine-4-carboxamide] | < 500 | ~100 | – | – |
| Cc1ccc(NC(=O)c2ccno2)cc1NC(=O)c1cccc(CN2CCN(C)CC2)c1 [N-{4-methyl-3-[3-(4-methylpiperazin-1-ylmethyl)benzamido]phenyl}isoxazole-5-carboxamide] | ~1000 | ~800 | – | – |
| CCN(CC)Cc1ccc(C(=O)Nc2cc(NC(=O)c3ccnc(N4CCOCC4)c3)ccc2C)cc1 [N-[3-(4-diethylaminomethylbenzamido)-4-methylphenyl]-2-morpholinopyridine-4-carboxamide] | < 500 | ~200 | ~10000 | – |
| Cc1ccc(NC(=O)c2ccnc(N3CCOCC3)c2)cc1NC(=O)c1cccc(CN2CCN(C)CC2)c1 [N-{3-[3-(4-methylpiperazin-1-ylmethyl)benzamido]-4-methylphenyl}-2-morpholinopyridine-4-carboxamide] | < 500 | ~100 | ~7000 | – |
| Cc1ccc(NC(=O)c2ccc3ncccc3c2)cc1NC(=O)c1cccc(OCCN2CCOCC2)c1 [Example 13, N-{3-[3-(2-morpholinoethoxy)benzamido]-4-methylphenyl}quinoline-6-carboxamide] | – | – | – | 216 to 217 |
